Assay results reported in US11510924B2, “Deuterated pharmaceutical compositions and methods of treating cardiovascular diseases” (priority 2017, dated 2022).

How the values were obtained:
volunteer subjects = assay: Heart rate effect of API combinations in volunteer subjects (Examples 1-3); conditions: added API in combination with aminophylline and clenbuterol; small group of volunteer subjects
Protocol: To test this hypothesis, an experiment was conducted, where a combination of aminophylline and clenbuterol was administered to a small group of volunteer subjects. […] For each subject in this example, an electrocardiogram (ECG) was used to monitor heart rate and A-V conduction abnormalities.
To further improve the effect of the aminophylline and clenbuterol combination on the heart rate, various combinations with active pharmaceutical ingredients were investigated. Without being bound by theory, the hypothesis in this experiment was to utilize a combination of APIs with similar mechanism of action or with the same side effect (a secondary therapeutical effects) on heart as aminophylline and clenbuterol. Oryzanol, nicotinamide, or anisodamine in combination with aminophylline and clenbuterol was tested on a small group of volunteer subjects.
Nifedipine (a calcium channel blocker) was then selected and tested.
A combination of betahistine with aminophylline, clenbuterol, and nifedipine was then prepared and tested on a small group of healthy volunteer subjects.

patient = assay: Clinical observation of heart rate in patients treated for other indications; conditions: vertigo patient, after administering betahistine
bradycardia patients = assay: API combinations tested on bradycardia patients (Examples 1-3); assay type: in vivo, human; conditions: observed on some patients
Protocol: During the testing of the 4-API combination on bradycardia patients, a few adverse side effects were observed on some patients. […] Therefore, a further study was conducted to determine how to avoid or reduce such side effects. […] To confirm this finding, clenbuterol was replaced by albuterol in the 4-API combination, which has a similar secondary therapeutic effect on heart rate. […] Daily electrocardiograms were used to monitor the bradycardia patients. […] With this improvement, the effectiveness of the treatment on bradycardia patients was retained while the undesired side effects were minimized or eliminated.

Row | Compound | effect on heart rate compared with aminophylline and clenbuterol combination (Example 1) (volunteer subjects) | other results
1 | CN1[C@H]2C[C@H](OC(=O)[C@H](CO)c3ccccc3)C[C@@H]1[C@@H](O)C2 [anisodamine] | no further improvement | –
2 | CNCCc1ccccn1 [betahistine] | – | effect on heart rate (patient): noticeably increased
3 | CC(C)(C)NCC(O)c1cc(Cl)c(N)c(Cl)c1 (centres unmarked) [clenbuterol] | – | adverse side effects (bradycardia patients): these side effects were related to clenbuterol
4 | NC(=O)c1cccnc1 [nicotinamide] | no further improvement | –
5 | Oryzanol | no further improvement | –
